Data taken from patent US10633377B2, “Imidazole and thiazole compositions for modifying biological signaling” (Ohio University, priority 2014, dated 2020).
pIC50: −log10 of the molar value. Where two headings read alike, the source gives them in different places.

Key:
IL-6 transcripts = assay: Inhibition of LPS induction of IL-6 transcripts in macrophages (rt-PCR); type: cell-based, Murine; conditions: for pIC50: LPS-treated murine macrophages, mRNA transcripts by rt-PCR
Procedure: (§1) Murine macrophages were treated with LPS in the presence of various exemplary compounds described above. Subsequently, the cells were harvested and the transcripts for IL-6, iNOS, and INF-β quantified via rt-PCR. IC50 is the concentration of the compounds required to inhibit 50% of the mRNA transcripts induced by LPS. TC50 is the concentration of the compounds required to diminish the MTS signal by 50% (MTS signal correlates with cell metabolism/viability). Therapeutic Index (TI) is the ratio of TC50 to IC50.
(§2) In TABLE 4, data are provided that show effects of exemplary compounds described above on the inhibition of LPS induction of IL-6, iNOS, and INF-β transcripts in macrophages. The IL-6, iNOS, and INF-β transcripts are key mediators in a plethora of signaling networks that are involved in normal physiology and pathological processes. The mechanism by which LPS induces the IL-6, iNOS, and INF-β transcripts is via a network of signaling events. […] Data in TABLE 4 that was not calculatable is noted “NC.”

iNOS transcripts = assay: Inhibition of LPS induction of iNOS transcripts in macrophages (rt-PCR); type: cell-based; conditions: LPS-treated murine macrophages, mRNA transcripts by rt-PCR
Procedure: as §1, §2

INF-β transcripts = assay: Inhibition of LPS induction of INF-β transcripts in macrophages (rt-PCR); type: cell-based, Murine; conditions: for pIC50: LPS-treated murine macrophages, mRNA transcripts by rt-PCR
Procedure: as §1, §2

[1] = MTS signal (cell metabolism/viability); type: cell-based, Murine; conditions: mouse, murine macrophages; concentration required to diminish the MTS signal by 50%; read-out: Average TC50
Procedure: as §1

Murine macrophages = assay: MTS signal (cell metabolism/viability); type: cell-based
Procedure: as §1

Structure (SMILES) | pIC50 (IL-6 transcripts; Mus musculus, Macrophage) | pIC50 (iNOS transcripts; Mus musculus, Macrophage) | pIC50 (INF-β transcripts; Mus musculus, Macrophage) | CC50 [1] | other results
COc1cccc(-c2c[nH]c(=S)n2C)c1 [COB-117] | 4.52 | 4.44 | 4.66 | – | –
Cn1c(-c2cccc(Cl)c2)c[nH]c1=S [COB-119] | 4.35 | 4.22 | 4.34 | 390 µM | –
COc1ccc(-c2c[nH]c(=S)n2C)cc1OC [COB-123] | 4.72 | 4.26 | 4.68 | – | –
CCn1c(-c2cccc(Cl)c2)c[nH]c1=O [COB-125] | 4.51 | 4.37 | 4.44 | 500 µM | –
COc1ccc(-c2c[nH]c(=S)n2C)c(OC)c1 [COB-130] | 4.54 | 4.59 | 4.33 | – | –
COc1ccc(OC)c(-c2c[nH]c(=S)n2C)c1 [COB-132] | 4.59 | 4.42 | 4.07 | 360 µM | –
Cn1c(-c2ccc(OC(F)(F)F)cc2)c[nH]c1=S [COB-134] | 4.18 | 4.06 | 3.87 | – | –
OC1(c2ccccc2)CSC(=S)N1Cc1cccnc1 (stereo not drawn) [COB-152] | 5.37 | 6.81 | 6.81 | 18 µM | –
S=c1scc(-c2ccccc2)n1CCc1ccccc1 [COB-177] | 5.10 | 4.49 | 4.89 | – | –
COc1ccc(OC)c(-c2csc(=S)n2Cc2cccnc2)c1 [COB-203] | 4.71 | – | 5.10 | 270 µM | –
COc1ccc(-c2csc(=S)n2Cc2cccnc2)cc1 [COB-206] | 4.98 | 4.27 | 4.52 | 120 µM | –
CCCn1c(-c2cccnc2)csc1=S [COB-214] | 5.22 | 4.98 | – | 230 µM | –
C=CCn1c(-c2ccccc2)csc1=S [COB-217] | – | – | – | – | pIC50 (IL-6 transcripts): 5.09; pIC50 (iNOS transcripts): ~5.00; pIC50 (INF-β transcripts): ~5.00; MTS signal decrease (Murine macrophages): 30%
CCCCCCn1c(-c2ccccc2)csc1=S [COB-218] | 5.02 | – | 4.98 | – | MTS signal decrease (Murine macrophages; 100 μM): 0%
CCCn1c(-c2ccc(Cl)c(Cl)c2)csc1=S [COB-219] | 5.07 | ~4.70 | 4.78 | – | MTS signal decrease (Murine macrophages; 100 μM): 30%
COc1ccc(F)cc1C1(O)CSC(=S)N1Cc1cccnc1 (stereo not drawn) [COB-225] | 4.49 | 6.00 | 6.00 | 65 µM | –
CCCN1C(=S)SCC1(O)c1cccnc1 (stereo not drawn) [COR-207] | 4.92 | 5.57 | 5.68 | – | –
CCCn1c(-c2ccc(C#N)cc2)csc1=S [COR-216] | 5.09 | ~5.00 | ~5.00 | > 100 µM | –

Now from value to molecule, other results behind:

pIC50 (IL-6 transcripts; Mus musculus, Macrophage) | pIC50 (iNOS transcripts; Mus musculus, Macrophage) | pIC50 (INF-β transcripts; Mus musculus, Macrophage) | Structure (SMILES) | CC50 [1] | other results
4.89 | 5.52 | 6.00 | COc1ccc(OC)c(C2(O)CSC(=S)N2Cc2ccccc2)c1 (stereo not drawn) [COB-143] | 23 µM | –
4.77 | 5.82 | 5.82 | OC1(c2ccccc2)CSC(=S)N1CCCc1ccccc1 (stereo not drawn) [COB-168] | 12 µM | –
4.72 | 5.02 | 5.10 | OC1(c2ccccc2)CSC(=S)N1Cc1nc2ccccc2[nH]1 (stereo not drawn) [COB-183] | > 50 µM | –
– | 5.72 | – | OC1(c2ccccc2)CSC(=S)N1Cc1cccc(CN2C(=S)SCC2(O)c2ccccc2)c1 (stereo not drawn) [COB-186] | 4 µM | IL-6 inhibition printed in IC50 column (IL-6 transcripts; 0.03 μM-2 μM): <30%; INF-β inhibition printed in IC50 column (INF-β transcripts; 0.5 μM-2 μM): 40%
– | 6.43 | 6.90 | OC1(c2ccccc2)CSC(=S)N1Cc1ccncc1 (stereo not drawn) [COB-187] | 15 µM | –
– | 6.60 | 6.60 | OC1(c2ccccc2)CSC(=S)N1Cc1ccc2[nH]ccc2c1 (stereo not drawn) [COB-188] | 13 µM | –
– | 6.30 | 6.43 | Oc1cccc(C2(O)CSC(=S)N2Cc2ccccc2)c1 (stereo not drawn) [COB-196] | 17 µM | –
– | 5.60 | 5.60 | COc1ccc(OC)c(C2(O)CSC(=S)N2Cc2cccnc2)c1 (stereo not drawn) [COB-197] | – | –
– | 6.82 | 6.70 | Oc1cccc(C2(O)CSC(=S)N2Cc2cccnc2)c1 (stereo not drawn) [COB-198] | 17 µM | –
– | 5.66 | < 5.30 | COc1ccc(C2(O)CSC(=S)N2Cc2cccnc2)c(OC)c1 (stereo not drawn) [COB-199] | 23 µM | –
– | 6.30 | 6.40 | Oc1ccc(C2(O)CSC(=S)N2Cc2cccnc2)c(O)c1 (stereo not drawn) [COB-200] | 11 µM | –
– | 6.35 | 5.90 | COc1ccc(C2(O)CSC(=S)N2Cc2cccnc2)cc1 (stereo not drawn) [COB-201] | 10 µM | –
– | 5.66 | 5.36 | O=c1oc2ccccc2cc1C1(O)CSC(=S)N1Cc1cccnc1 (stereo not drawn) [COB-202] | 43 µM | –
5.30 | 5.15 | 4.85 | COc1ccc(-c2csc(=S)n2Cc2cccnc2)c(OC)c1 [COB-204] | 130 µM | –
4.80 | 5.70 | 5.52 | CCCN1C(=S)SCC1(O)c1ccc(Cl)c(Cl)c1 (stereo not drawn) [COB-210] | 45 µM | –
– | 5.47 | 5.44 | CCCCCCN1C(=S)SCC1(O)c1ccccc1 (stereo not drawn) [COB-212] | 54 µM | –
5.06 | ~5.00 | ~5.00 | CCCn1c(-c2cccc([N+](=O)[O-])c2)csc1=S [COB-215] | ~100 µM | –
5.26 | 5.43 | 4.91 | CCCn1c(-c2cc(OC)ccc2OC)csc1=S [COB-220] | 60 µM | –
< 5.00 | 5.74 | 5.82 | Oc1ccc(Cl)cc1C1(O)CSC(=S)N1Cc1ccccc1 (stereo not drawn) [COB-221] | 18 µM | –
5.07 | 6.35 | 6.35 | Oc1ccc(Cl)cc1C1(O)CSC(=S)N1Cc1cccnc1 (stereo not drawn) [COB-222] | 15 µM | –
5.46 | 6.40 | 6.40 | Cc1ccc(C)c(C2(O)CSC(=S)N2Cc2cccnc2)c1 (stereo not drawn) [COB-223] | 14 µM | –
5.46 | 6.40 | 6.35 | Cc1ccccc1C1(O)CSC(=S)N1Cc1cccnc1 (stereo not drawn) [COB-224] | 13 µM | –
4.90 | 5.82 | 5.82 | OC1(c2cc(C(F)(F)F)ccc2Cl)CSC(=S)N1Cc1cccnc1 (stereo not drawn) [COB-226] | 33 µM | –
